According to US20020054872A1, “Peptides for the treatment of systemic lupus erythematosus and methods of treating systemic lupus erythematosus” (priority 1997, published 2002):
Residues, ends and D or L forms follow the SMILES beside them.

What was measured:
[1] = test system: C72 murine anti-DNA antibody; assay: Direct binding ELISA of C72 to laminin peptides; parameters: species or system mouse; conditions: for C72 Binding: direct binding ELISA test after one (1) hour; for binding of C72 murine anti-DNA antibody to laminin peptides: FIG. 1, C72 conditioned medium in various dilutions
Experimental: (§1) The C72 murine anti-DNA antibody has been derived from (NZB×NZW)F1 lupus mice by the hybridoma technique as described in Eilat D. et al J. Immunol. […] The monoclonal anti-DNA antibodies DIL6 and B3 were derived from lupus patients by hybridoma technique as described in Ehrenstein M. R. et al J. Clin. Invest. (1994) 93 1787-1799 and Ehrenstein M. R. et al Kidney Inter. (1995) 48 705-711.
(§2) Wells were coated with 10 μg/ml of the peptides, blocked with 1% BSA (bovine serum albumin) in PBS (pH 7,4), reacted with appropriately diluted serum or urine samples or monoclonal antibodies, incubated with anti-human or anti-mouse immunoglobulin enzyme conjugated to alkaline phosphatase and detected by addition of substrate (Sigma 100 Phosphatase Substrate Tablets) and color development using an Organon Teknika Microwell System spectrometer at wavelength of 405 nm.
The interaction of the C72 murine anti-DNA antibody with laminin peptides was analyzed by ELISA as described above. The C72 conditioned medium was diluted in PBS in various dilutions.
(§3) The peptides of the present invention were tested for their ability to bind directly with C72 murine anti-DNA antibodies and B3 human anti-DNA antibodies according to the method described hereinabove.

[2] = test system: C72 murine anti-DNA antibody; assay: Competitive inhibition of C72 binding to 5200; parameters: species or system mouse; conditions: FIG. 2, incubation with inhibiting agent
Experimental: The binding of C72 to 5200 was tested before and after incubation with 5200, R38, R18, Heparin, DNA and DNase. […] The percent inhibition is the percent reduction of the O.D. after incubation with the inhibiting agent.

[3] = test system: murine urinary immunoglobulins; assay: Binding of murine urinary immunoglobulins, direct binding ELISA; parameters: species or system mouse; conditions: MRL/lpr/lpr mice, pooled urine
Experimental: as §2
Thus, pooled urine from at least 5 mice (either MRL/lpr/lpr or control mice, e.g. BALB/c) was added to wells coated with R38′ (5200), R18 or DNA as described above and bound 5200 assayed by ELISA.
Each group is comprised of pooled urine.

MRL/lpr/lpr mice = assay: Effect on clinical course of murine SLE (survival, renal histology); type: in vivo, mouse; conditions: from 6 weeks old
Experimental: To test whether R38 peptides can affect the course of SLE we have tested their effect on MRL/lpr/lpr mice disease. 60 μg of 5200 (R38′ alone or in peptide combinations, 30 μg of each) in 0.1 ml PBS, was injected i.p. to 6 week old female MLR/lpr/lpr mice once a week for 16 week and the mice were evaluated for survival (FIG. 8), and for renal histology. 50 μg of 5100 (R38) or 5300 (human R38) in 0.1 ml PBS, was injected i.p. to 6 week old MRL/lpr/lpr mice three times a week and the mice were evaluated for survival (FIG. 9), and for renal histology. Control mice received 0.1 ml phosphate buffer solution. Each test and control group contained 12-15 mice.
The survival of MRL/lpr/lpr mice treated with […], 5200 or 5300 was compared to that of PBS treated mice. […] In FIGS. 8 and 9 the time in days shown on the x axis relates to the age of the mice.

[4] = test system: B3 human anti-DNA antibody; assay: Direct binding ELISA of B3 to laminin peptides; conditions: FIGS. 3 and 4
Experimental: as §1, §2
(§4) The human monoclonal anti-DNA antibodies DIL 6 and B3 were derived from lupus patients by the hybridoma technique. […] In FIGS. 3 and 4, the peptides are referred to as denoted above or as follows; AS30 is R27, AS19 is R35 AS35 is R26, AS17 is R28 and AS6 is R18.
as §3

[5] = test system: human monoclonal anti-DNA antibody DIL 6; assay: Direct binding ELISA of DIL6 to laminin peptides; conditions: FIGS. 3 and 4
Experimental: as §1, §2, §4

[6] = test system: anti-R38 antibodies in patients' plasma; assay: Immunoabsorption of plasma on R38 column, anti-R38 ELISA; type: binding, human
Experimental: (§5) The R38 peptide was dissolved in the coupling buffer (0.2M NaHCO3, 0.5M NaCl, pH 8.3) in a concentration of 1 mg/ml in 5 ml coupling buffer. A 5 ml N-hydroxysuccinimide (NHS)-activated Sepharose™ High Performance Column (Pharmacia 17-0717-01) is used. The isopropanol in the column was washed out from the column with 30 ml of cold (4° C.) 1 mM HCl and 5 ml of the peptide solution was then injected onto the column with a syringe (2.5 ml/minute). The column was sealed and stood for 30 minutes at room temperature. The column was then washed with 30 ml Buffer A (0.5 M ethanolamine, 0.5 M NaCl, pH 8.3) and 30 ml Buffer B (0.5 M acetate, 0.5 M NaCl, pH 4) consecutively three times, and then with neutral pH buffer (0.05 M Na2HP04 and 0.1% NaN3).
(§6) The column was washed with 15 ml PBS (phosphate buffered saline), followed by 15 ml elution buffer (0.1 M glycine HCl) and then 50 ml PBS. The C72 antibody or the patients' plasma samples were filtered through a 0.45 microm filter. The samples were applied onto the column by a fitted syringe at a rate of 2.5 ml/min. The column was then washed with 5 ml PBS and the flow-through was applied to the column again. The binding of the samples (original and flow-through) to R38 was tested by the anti-R38 ELISA test.
(§7) In the instant example, the mouse C72 and the SLE patients' plasma were applied to the R38 column. Their anti-R38 binding was evaluated by ELISA in the original samples and in the flow-through of the column.

C72 antibody = assay: Immunoabsorption of C72 on R38 column, anti-R38 ELISA; type: binding, mouse
Experimental: as §5, §6, §7

[7] = target: C72 murine anti-DNA antibody; assay: competitive inhibition ELISA: C72 preincubated with peptide, binding to coated 5100 (R38)

## CC[C@H](C)[C@H](NC(=O)[C@H](CC(N)=O)NC(=O)[C@H](CC(C)C)NC(=O)[C@H](CC(=O)O)NC(=O)[C@H](CC(C)C)NC(=O)[C@H](CCCNC(=N)N)NC(=O)[C@@H](NC(=O)[C@H](CCCCN)NC(=O)[C@H](Cc1ccc(O)cc1)NC(=O)CNC(=O)[C@H](CCC(=O)O)NC(=O)[C@@H](N)CCCCN)C(C)C)C(=O)N[C@H](C(=O)N[C@@H](CC(C)C)C(=O)N[C@@H](C)C(=O)N[C@@H](Cc1ccccc1)C(=O)N[C@@H](CCCNC(=N)N)C(=O)N[C@H](C(=O)N[C@H](C(=O)N[C@@H](CO)C(=O)N[C@@H](CCCCN)C(=O)O)[C@@H](C)O)[C@@H](C)O)[C@@H](C)O [Peptide 5110] (H-KEGYKVRLDLNITLAFRTTSK-OH; N-terminus and C-terminus assumed)
[1]
  C72 Binding: 2.5 O.D.

## CC[C@H](C)[C@H](NC(=O)[C@H](CC(N)=O)NC(=O)[C@H](CC(C)C)NC(=O)[C@H](CC(=O)O)NC(=O)[C@H](CC(C)C)NC(=O)[C@H](C)NC(=O)[C@@H](NC(=O)[C@H](C)NC(=O)[C@H](Cc1ccc(O)cc1)NC(=O)CNC(=O)[C@H](CCC(=O)O)NC(=O)[C@H](C)N)C(C)C)C(=O)N[C@H](C(=O)N[C@@H](CC(C)C)C(=O)N[C@@H](CCC(=O)O)C(=O)N[C@@H](Cc1ccccc1)C(=O)N[C@@H](C)C(=O)N[C@H](C(=O)N[C@H](C(=O)N[C@@H](CO)C(=O)N[C@@H](C)C(=O)O)[C@@H](C)O)[C@@H](C)O)[C@@H](C)O [Peptide 5104] (H-AEGYAVALDLNITLEFATTSA-OH; N-terminus and C-terminus assumed)
[1]
  C72 Binding: 0.08 O.D.

## DNA [reference compound]
[2]
  inhibition of the binding of C72 to 5200: inhibition

## KQNCLSSRASFRGCVRNLRLSR [Peptide R30, residues 3011-3032 of mouse laminin α chain]
[1]
  binding of C72 murine anti-DNA antibody to laminin peptides: binding

## heparin [reference compound]
[2]
  inhibition of the binding of C72 to 5200: inhibition

## CC(C)C[C@H](NC(=O)[C@H](CC(=O)O)NC(=O)[C@H](CC(C)C)NC(=O)[C@H](CCCNC(=N)N)NC(=O)[C@@H](NC(=O)[C@H](CCCCN)NC(=O)[C@H](Cc1ccc(O)cc1)NC(=O)CNC(=O)[C@H](CCC(=O)O)NC(=O)[C@@H](N)CCCCN)C(C)C)C(=O)N[C@@H](CC(N)=O)C(=O)N[C@H](C(=O)N[C@H](C(=O)N[C@@H](CC(C)C)C(=O)N[C@@H](CCC(=O)O)C(=O)N[C@@H](Cc1ccccc1)C(=O)N[C@@H](CCCNC(=N)N)C(=O)N[C@H](C(=O)N[C@H](C(=O)N[C@@H](CO)C(=O)N[C@@H](CCCCN)C(=O)O)[C@@H](C)O)[C@@H](C)O)[C@@H](C)O)[C@@H](C)O (stereo in doubt) [Peptide 5200]
[3]
  Binding of murine urinary immunoglobulins to antigen: 0.26 (*) O.D. at 405 nm
MRL/lpr/lpr mice; 60 μg i.p. once a week for 16 week, FIG. 8
  survival: significantly higher than that of control mice
[4]
  binding of B3: found to bind
[2]
  inhibition of the binding of C72 to 5200: inhibition
[5]
  binding of DIL 6: found to bind
[1]
  binding of C72 murine anti-DNA antibody to laminin peptides: binding

## CC[C@H](C)[C@H](NC(=O)[C@H](CC(N)=O)NC(=O)[C@H](CC(C)C)NC(=O)[C@H](CC(=O)O)NC(=O)[C@H](CC(C)C)NC(=O)[C@H](CCCNC(=N)N)NC(=O)[C@@H](NC(=O)[C@H](CCCCN)NC(=O)[C@H](Cc1ccc(O)cc1)NC(=O)CNC(=O)[C@H](CCC(=O)O)NC(=O)[C@@H](N)CCCCN)C(C)C)C(=O)N[C@H](C(=O)N[C@@H](CC(C)C)C(=O)N[C@@H](CCC(=O)O)C(=O)N[C@@H](Cc1ccccc1)C(=O)N[C@@H](CCCNC(=N)N)C(=O)N[C@H](C(=O)N[C@H](C(=O)N[C@@H](CO)C(=O)N[C@@H](CCCCN)C(=O)O)[C@@H](C)O)[C@@H](C)O)[C@@H](C)O [Peptide 5100] (H-KEGYKVRLDLNITLEFRTTSK-OH; N-terminus and C-terminus assumed)
MRL/lpr/lpr mice; 50 μg i.p. three times a week, FIG. 9
  survival: significantly higher than that of control mice
[2]
  inhibition of the binding of C72 to 5200: inhibition
[6]; Healthy donor's plasma, after immunoabsorption
  Binding to R38 (O.D.): 0.06 O.D.
[6]; Healthy donor's plasma, original sample
  Binding to R38 (O.D.): 0.26 O.D.
[6]; SLE patient 1 plasma, after immunoabsorption
  Binding to R38 (O.D.): 0.6 O.D.
[6]; SLE patient 1 plasma, original sample
  Binding to R38 (O.D.): 1.5 O.D.
[6]; SLE patient 2 plasma, after immunoabsorption
  Binding to R38 (O.D.): 1.6 O.D.
[6]; SLE patient 2 plasma, original sample
  Binding to R38 (O.D.): 2.3 O.D.
[6]; human SLE patients' plasma
  antibodies removed by affinity absorption on the column: 30%-60%
C72 antibody; C72, after immunoabsorption on R38 column
  Binding to R38 (O.D.): 0.02 O.D.
C72 antibody; C72, original sample
  Binding to R38 (O.D.): 1.96 O.D.
C72 antibody; mouse monoclonal C72
  anti-R38 activity removed by affinity absorption on the column: 99%

## KATPMLKMRTSFHGCIK [Peptide R37, residues 2615-2631 of mouse laminin α chain]
[1]
  binding of C72 murine anti-DNA antibody to laminin peptides: binding

## DNase [reference compound]
[2]
  inhibition of the binding of C72 to 5200: not by a control peptide or treatment with DNase

B1: 5101 peptide, Res. 1-16 of 5100 (peptide)
peptide: KEGYKVRLDLNITLEF
[7]
  IC50: 5 µg/mL

B2: 5110 peptide, Ala subst. of 5100 a.a. 15 (peptide)
peptide: KEGYKVRLDLNITLAFRTTSK
[7]
  IC50: 0.7 µg/mL

B3: 5102 peptide, Res. 6-17 of 5100 (peptide)
peptide: VRLDLNITLEFR
[7]
  IC50: 30 µg/mL

B4: 5200 peptide, mouse R38 analog (peptide)
peptide: KEGYKVRLDLNTTLEFRTTSK
[7]
  IC50: 10 µg/mL

B5: R38 peptide (5100), mouse laminin alpha chain residues 2890-2910 (peptide)
peptide: KEGYKVRLDLNITLEFRTTSK
[7]
  IC50: 10 µg/mL

B6: 5107 peptide, charge subst. to neg. at 5100 a.a. 17 (peptide)
peptide: KEGYKVRLDLNITLEFETTSK
[7]
  IC50: 85 µg/mL

B7: 5106 peptide, charge subst. to neg. at 5100 a.a. 7 (peptide)
peptide: KEGYKVELDLNITLEFRTTSK
[7]
  IC50: 2.5 µg/mL

B8: 5109 peptide, Ala subst. of 5100 a.a. 9 (peptide)
peptide: KEGYKVRLALNITLEFRTTSK
[7]
  IC50: 0.7 µg/mL

B9: 5108 peptide, Ala subst. of 5100 at all negative a.a. (peptide)
peptide: KAGYKVRLALNITLAFRTTSK
[7]
  IC50: 2 µg/mL
